Source: patent US8101352B2, “Detection of ESR1 amplification in breast cancer” (Universitatsklinikum Hamburg-Eppendorf, priority 2006, dated 2012)

Test system: breast cancer patients
Assay: Prognostic relevance of ESR1 alterations in breast cancer treated with Tamoxifen (tissue microarray FISH/IHC with survival analysis)
Format: in vivo, human
Description: Contingency table analysis and Chi-square tests were used to study the relationship between histologic tumor type, grade, stage and gene amplification. Survival curves were plotted according to Kaplan-Meier. A log rank test was applied to examine the relationship between gene amplifications and patient survival.
2.1 The general results obtained by CGH were verified by fluorescence in situ hybridization (FISH) using existing tissue microarrays. A breast cancer Prognosis Tissue Microarray containing more than 2517 breast tissues was analyzed. […]
2.3 The TMA sections were treated according to the Paraffin Pretreatment Reagent Kit protocol (Vysis, Downers Grove, Ill.) before hybridization. […] In a second more refined analysis FISH signal numbers of the ESR1 gene and centromere 6 were counted in each tissue spot. […]
3.1 Immunohistochemical detection of the estrogen receptor alpha protein was performed using the above described TMAs and antibody NCL-L-ER-6F11 as a primary antibody (Novocastra, Newcastle, UK). […] In brief, intensity of the estrogen receptor staining was recorded in a 4-step scale (0-3) and the fraction of ER positive tumor cells in a 5-step (1-5) scale. […]

Compound: CC/C(=C(\c1ccccc1)c1ccc(OCCN(C)C)cc1)c1ccccc1 [Tamoxifen]
- prognosis of Tamoxifen treated patients with ESR1 amplification (Tamoxifen monotherapy after surgery, ESR1 amplified versus ER positive by IHC without ESR1 amplification, p<0.0001 (FIG. 4)): significantly better
- overall survival of patients with ESR1-amplified tumors under anti-estrogen therapy with Tamoxifen (compared to patients with tumors not exhibiting ESR1 amplification (FIG. 4)): significantly increased
